# Measured values reported in patent US20070003531A1, “Methods for improving immunotherapy by enhancing survival of antigen-specific cytotoxic T lymphocytes” (University of Connecticut, priority 2005, published 2007).
# “Also recorded” adds a separate entry of the source.
# Experiments:
# helper T cells = experiment: AICD in helper T cells; format: cell-based
# From the text: Thus, JNK inhibitors, when administered alone or in combination with other therapeutics, have utility for the treatment of diseases, including AIDS, for which the death of helper T cells is a factor in the etiology, mechanism or progression of that disease.
# [1] = system: MART-127-35 epitope specific human primary CTL; experiment: AICD induction and quantitation in epitope specific primary CTL (tetramer/annexin V FACS); format: cell-based; settings: pre-incubation about 45 min; restimulation with MART-127-35 peptide pulsed T2 cells; kinase inhibitors 25 μM, z-VAD-fmk 100 μM, Fc chimeras 10 μg/ml
# Procedure: FIG. 10. Effect of external death receptor blockade and MAP kinase inhibitors on AICD in the epitope specific CTLs upon secondary encounter of the cognate epitope. The CTLs were pre-incubated at optimal concentration for about 45 min. at about 37° C. with pan caspase inhibitor z-VAD-fmk (100 μM); human Fas/Fc chimera, human TNF-RI/Fc chimera, human TRAIL-RI/Fc chimera, human TRAIL-RII/Fc chimera and human IFN-γ RI/Fc chimeric proteins (10 μg/ml); p38 kinase inhibitor SB203580, JNK inhibitor anthra[1,9-cd]pyrazol-6(2H)-one (SP600125), […] inhibitor PD98059 (25 μM). Then the pretreated as well as untreated CTLs were incubated with T2 cells either alone or loaded with peptide. About 4 hours after secondary exposure cells were stained for determining: (A) Number of tetramer^+ cells out of the CD8^+ T cells [Top panel]; number of tetramer^+/Annexin V^+ and tetramer^+/Annexin^− populations [Bottom panel]. […] (B) Effect of the MAP kinase inhibitors on IFN-γ response by the effector cells.
# AICD induction and quantitation. AICD in the human primary CTL primed and expanded specifically for melanoma epitope MART-127-35 was induced by re-exposure of the CTLs to MART-127-35 peptide (1 μg/ml) as reported previously. Staurosporine mediated death was induced by exposure of CTL to 1 μM staurosporine for 4 hr. Quantitation of AICD and the effects of various inhibitors on AICD of CTLs, were carried out by annexin-V staining followed by FACS analyses as reported previously.
# In test whether or not the epitope specific primary CTLs undergo AICD, the activated CTLs were exposed to peptide [1 μg/ml] loaded T2 cells (Effector: Target=100) at different time points of the cultures. Thereafter, the evidence of apoptosis was determined by flow cytometry with triple color staining (CD8, MART-127-35/HLA-A2 tetramer and annexin V) at different time points (4-18 h). Experiments were carried out in triplicate wells and significance was calculated by One-way analysis of variance (ANOVA) using Sigma Stat statistical software, Chicago, Ill.
# To evaluate the effect of various agents in modulating AICD, the CTLs were pre-incubated with various compounds at optimal concentration for 45 min. at 37° C. and then exposed to T2 cells alone or loaded with peptide.
# [2] = system: c-Jun phosphorylation (JNK activation) in CTL; experiment: c-Jun phosphorylation in CTL during AICD (immunoblot); format: cell-based, human; settings: CTL re-stimulated with Mart-127-35 peptide after pre-incubation
# Procedure: FIG. 1. […] (A) Effect of the JNK inhibitor SP600125 on AICD in the MART-127-35 epitope specific CTL. Histogram represents FACS analysis of the percent of MART-127-35 epitope specific CTLs that were tetramer positive and annexin negative after restimulation with MAGE-3271-279 control peptide (M3) pulsed T2 cells or MART-127-35 peptide (M1) pulsed T2 cells either alone or re-stimulated after pre-incubation with JNK inhibitor SP600125, p38-kinase inhibitor SB203580, ERK1/2 inhibitor PD98059 or caspase-inhibitor z-VAD-fink. MAGE-3271-279. (B) JNK activation results in phosphorylation of c-Jun during AICD in CTL that is blocked by SP600125. […] (i) Jurkat cells were treated with PMA+ionomycin in the absence or presence of SP600125 and JNK activation (c-Jun phosphorylation) was assessed with anti-phospho-c-Jun antibody. […] (ii) Jurkat cells were treated with Staurosporine for 1 and 4 hrs in the absence (S) or presence of caspase inhibitor, z-VAD-fmk (CI), JNK inhibitor, SP600125 (SP) or ERK1/2 inhibitor PD98059 (PD) and cleavage of PARP was detected by immunoblotting, using actin as a loading control. […] Percent annexin positive cells in all samples were quantified by FACS analysis and shown below the blot
# Immunoblot analysis. […] Proteins bound to the resin were washed three times with RIPA buffer, re-suspended in sample buffer, and analyzed by SDS-PAGE and immunoblotting.
smiles,measurement,setting,value
"O=C1c2ccccc2-c2n[nH]c3cccc1c23 [SP600125, anthra[1,9-cd]pyrazol-6(2H)-one]",AICD in helper T cells,helper T cells,inhibit/prevent
same,protection/rescue of CTL from AICD,[1],protected; also recorded: rescued a significant fraction; also recorded: capable of protecting; also recorded: blocked
same,c-Jun activation (phosphorylation) in CTL during AICD,[2],blocked
